Measured values from patent publication US20230106769A1, “SERUM-FREE MEDIUM AND CULTURING METHOD SUITED FOR CULTURING BLOOD CELLS SUCH AS HUMAN HEMATOPOIETIC STEM CELLS” (The University of Tokyo, priority 2020, published 2023).

Key:
[1] = system: human hematopoietic stem cells; experiment: Culture of human hematopoietic stem cells with AKTa or PI3Ka; type: cell-based; conditions: 0.3 μM AKTa or 20 μM PI3Ka; PVA, no albumin, SCF 10 ng/mL, TPO 100 ng/mL
Procedure: Then, human hematopoietic stem cells were cultured in a culture medium supplemented with 0.3 μM AKTa (Sigma-Aldrich, product No. 123871) or 20 μM PI3Ka. Cells were counted after 3, 5, and 7 days of incubation, and the relative cell count at each time point was calculated while the cell count on the first day of incubation was set to 1. In the following Examples, 740Y-P (Provider name: Tocris, product No. 1983) was used as PI3Ka.

[2] = system: human hematopoietic stem cells; experiment: Replacement of SCF by PI3Ka, 7-day culture; type: cell-based; conditions: day 7; 20 μM PI3Ka, TPO 100 ng/mL, PVA, no albumin
Procedure: Next, human hematopoietic stem cells were cultured to examine whether PI3Ka could completely replace SCF. Human hematopoietic stem cells were cultured for 7 days in the above culture medium for human hematopoietic stem cells with 20 μM PI3Ka (S10+PI3Ka20+T100) or in the above culture medium with 20 μM PI3Ka but without SCF (PI3Ka20+T100). The total number of cells and the number of isolated CD34^+ cells as obtained by cell sorting using an anti-CD34 antibody were then determined.

[3] = system: human hematopoietic stem cells; experiment: Culture with PI3Ka and/or TPOago in medium without SCF or TPO; type: cell-based; conditions: day 7; 20 μM PI3Ka and/or 0.1 μM TPOago; no SCF, no TPO; PVA
Procedure: Next, human hematopoietic stem cells were cultured in a medium containing 20 μM PI3Ka and/or 0.1 μM TPOago with reference to a culture medium without SCF or TPO. On day 7 of culture, the number of total cells and the number of CD34^+ cells included were counted by flow cytometry, and the growth rate relative to that at the start of culture was determined.

Mp132D cells = experiment: Replacement of TPO by TPO receptor agonists, Mp132D cells; type: cell-based, human; conditions: 0.1 μM butyzamide, 3 μg/mL eltrombopag, 3 μM avatrombopag; for proliferation in the absence of TPO: in the presence of 0.1% recombinant human serum albumin; for cell proliferative effect in the absence of TPO: in the presence of PVA, absence of albumin
Procedure: (§1) Next, human hematopoietic stem cells were cultured to examine whether TPO could be replaced by a TPO receptor agonist. Examples of the known TPO receptor agonist include butyzamide, eltrombopag, or avatrombopag. Human hematopoietic stem cells were cultured in a medium containing 0.1 μM butyzamide, 3 μg/mL eltrombopag, or 3 μM avatrombopag in the presence of 0.1% recombinant human serum albumin (Albumin Biosciences) or in the presence of PVA in the above culture medium without TPO. In this experiment, Mp132D cells were used as human hematopoietic stem cells.
as §1, with “TPO receptor agonists include butyzamide,” for “TPO receptor agonist include butyzamide,”

[4] = system: human bone marrow CD34+ cells or cord blood CD34+ cells; conditions: absence of albumin, presence of PVA; TPO replaced by agonist
Procedure: In addition, purchased human bone marrow CD34^+ cells (provider name: Lonza, product No. 2C-101) or CD34^+ cells isolated using microbeads from given fresh cord blood were used for culture experiments. the experiments were performed in 24-well plates at 0.2 to 1.0×10^5 cells per well, with TPO removed from the culture medium for human hematopoietic stem cells and replaced by one of the above TPO receptor agonists (hereinafter, sometimes referred to as “TPOago”). The cell count on the seventh day of culture relative to the cell count on the first day of culture was determined.
In addition, purchased human bone marrow CD34^+ cells (provider name: Lonza, product No. 2C-101) or CD34^+ cells isolated using microbeads from given fresh cord blood were used for culture experiments. Experiments were performed in 24-well plates with 0.2 to 1.0×10^5 cells per well, with TPO removed from the culture medium for human hematopoietic stem cells and replaced by one of the above TPO receptor agonists (hereinafter, sometimes referred to as “TPOago”). The cell count on the seventh day of culture relative to the cell count on the first day of culture was determined.

[5] = system: human bone marrow CD34+ cells or cord blood CD34+ cells; experiment: Culture with PI3Ka and TPO or butyzamide, growth rate at day 7; type: cell-based; conditions: 20 μM PI3Ka, 0.1 μM butyzamide vs TPO 100 ng/mL, PVA, no albumin
Procedure: (§2) In the following Examples, butyzamide was used as a TPO receptor agonist. […] After 7 days, the total number of cells was determined and the number of CD34^+ cells was determined by flow cytometry. Thereafter, the growth rate compared to that at the beginning of the incubation was determined. […] In addition, CD34^+ cells were sorted before and after incubation by using a cell sorter, and 100 cells were seeded into Methocult H4415 for colony assay. After two weeks, each colony was picked under a microscope, a cytospin sample was prepared, and the sample was subjected to Giemsa staining. The type of the colony was then identified under a microscope. GEmM colonies per 50 CD34^+ cells were counted and a rate of increase in the number of colonies compared to before the culture was determined.

CD34+ cells [6] = experiment: GEmM colony assay (Methocult H4415) after culture with PI3Ka and TPO or butyzamide; type: cell-based, human; conditions: GEmM colonies per 50 CD34+ cells; after 7-day culture; 0.1 μM butyzamide vs TPO
Procedure: as §2

[7] = system: Bone marrow cell samples from CML (chronic myelogenous leukemia) patients; experiment: Culture of chronic myelogenous leukemia (CML) cells with or without imatinib; type: cell-based, human; conditions: one week; 0.1% PVA, 20 μM PI3Ka, 0.1 μM TPOago
Procedure: Bone marrow cell samples from CML (chronic myelogenous leukemia) patients were each cultured for one week under albumin-free and cytokine-free culture conditions. The culture medium used was a basal medium containing 0.1% PVA, 20 μM PI3Ka, and 0.1 μM TPOago. The culturing was performed in the presence or absence of an inhibitor (imatinib (IM)) of Bcr-Abl, the gene responsible for CML.

[8] = system: human bone marrow CD34+ cells or cord blood CD34+ cells; experiment: 14-day culture in PI3Ka and TPOago medium with SR-1 and/or UM171; type: cell-based
Procedure: (§3) Prepared was the above culture medium for human hematopoietic stem cells, which medium contained 20 μM PI3Ka and 0.1 μM TPOago instead of SCF and TPO (PI3Ka20μM+TPOago0.1 μM), or which medium contained SR-1 (500 nM) and/or UM171 (35 nM) (+SR-1, +UM171, or +SR-1+UM171). […] The total cell count and the CD34^+ cell count were determined as above on day 14 after the start of culture, and the growth rate relative to that at the start of culture was determined.
as §3, with “(PI3Ka20μM+TPO0.1μM),” for “(PI3Ka20μM+TPOago0.1 μM),”, “(500nM)” for “(500 nM)”

CD34+ cells [9] = experiment: 14-day culture of CD34+ cells under conditions 1 to 3; type: cell-based, human
Procedure: Further, the growth rate of the total cell count or the CD34^+ cell count was determined by culturing the CD34^+ cells under three conditions: condition 1: cultured for 14 days in the culture medium for human hematopoietic stem cells above, which medium contained 20 μM PI3Ka and 0.1 μM TPOago instead of SCF and TPO (PI3Ka20μM+TPOago0.1μM), condition 2: at day 7 or later, cultured in a medium without butyzamide (Day7—no Buty), and condition 3: cultured for 14 days in a medium (PI3Ka20μM+TPOago0.1μM) further containing UM171 (+UM171). The CD41^+ cell count was determined using a flow cytometer.

[10] = day 14, condition 2 compared to condition 1, condition 3 (+UM171) compared to condition 1 or 2

Compound: CCOC(=O)C1=C(N)Oc2ccc(Cl)cc2C1C(C#N)C(=O)OCC (stereo not drawn) [AKTa]
- relative cell count (proliferation) after 3, 5 and 7 days [1]: no proliferative effect

Compound: RQIKIWFQNRRMKWKKSDGGYMDMS [PI3Ka, Tocris, product No. 1983]
- relative cell count (proliferation) after 3, 5 and 7 days [1]: marked proliferation
- difference in number of total cells or CD34+ cells with or without SCF [2]: no significant difference
- growth rate (total cells and CD34+ cells) relative to start of culture [3]: no increase in the cell count

Compound: CCCOC(c1cccc(-c2csc(NC(=O)c3cc(Cl)c(C=C(C)C(=O)O)c(Cl)c3)n2)c1OC)C(C)(C)C (stereo not drawn) [butyzamide, 3-[4-[[[4-[2-methoxy-3-(1-tert-butyl-2-oxapentan-1-yl)phenyl]thiazol-2-yl]amino]carbonyl]-2,6-dichlorophenyl]-2-methylpropenoic acid]
- proliferation in the absence of TPO (Mp132D cells): able to support proliferation
- cell proliferative effect in the absence of TPO (Mp132D cells): marked cell proliferative effect
- cell count on the seventh day relative to the first day (proliferation) [4]: significant cell proliferation
- growth rate of total cells and CD34+ cells, replacement of TPO [5]: can completely replace TPO
- GEmM colony formation potential, replacement of TPO (CD34+ cells [6]): can completely replace TPO
- growth rate (total cells and CD34+ cells) relative to start of culture [3]: no increase in the cell count

Compound: O=C(Nc1nc(-c2cc(Cl)cs2)c(N2CCN(C3CCCCC3)CC2)s1)c1cnc(N2CCC(C(=O)O)CC2)c(Cl)c1 [avatrombopag]
- proliferation in the absence of TPO (Mp132D cells): able to support proliferation
- cell proliferative effect in the absence of TPO (Mp132D cells): small

Compound: CC1=NN(c2ccc(C)c(C)c2)C(=O)/C1=N\Nc1cccc(-c2cccc(C(=O)O)c2)c1O [eltrombopag]
- cell death (cytotoxicity) in hematopoietic stem cells [4]: caused cell death

Compound: SCF: stem cell factor, hematopoietic cell growth factor
- difference in number of total cells or CD34+ cells with or without SCF [2]: no statistically significant difference

Compound: Cc1ccc(NC(=O)c2ccc(CN3CCN(C)CC3)cc2)cc1Nc1nccc(-c2cccnc2)n1 [IM, imatinib]
- cell expansion in the presence of IM [7]: no significant cell expansion

Compound: CC(C)n1cnc2c(NCCc3ccc(O)cc3)nc(-c3csc4ccccc34)nc21 [SR-1]
- cell death ([8]; SR-1 500 nM in PI3Ka20μM+TPOago0.1μM medium, PVA, no albumin): caused cell death

Compound: Cn1nnc(-c2ccc3c(c2)[nH]c2nc(Cc4ccccc4)nc(NC4CCC(N)CC4)c23)n1 (stereo not drawn) [UM171, 4-N-[2-benzyl-7-(2-methyltetrazol-5-yl)-9H-pyrimid[4,5-b]indol-4-yl]cyclohexane-1,4-diamine]
- growth rate of CD34+ cells, medium containing UM171 vs medium without ([8]; day 14, UM171 35 nM): significantly larger
- total cell count and CD34+ cell count ([8]; day 14, UM171 35 nM added to PI3Ka20μM+TPOago0.1μM medium): increased
- CD34+ cell count / growth rate of CD34+ cells (CD34+ cells [9]; [10]): markedly increased
- CD41+ cell count (CD34+ cells [9]; [10]): markedly decreased
- differentiation into megakaryocyte progenitors and megakaryocytes (CD34+ cells [9]; serum-free medium with PVA, PI3Ka and TPOago): inhibited
